One data set in a line: Rat oral bioavailability. In kind it is in vivo. Conditions: Sprague-Dawley, plasma, fasted male SD rats, IV 0.25 mg/kg, PO 1 mg/kg, based on AUC0-24hr, mean s.d., n=3. The method, then: Methods for accessing bioavailability are well appreciated in the art. One such reference is Medicinal Research Reviews Vol 21 No. 5 382-396 (2001). Bioavailability of compounds may be estimated essentially as follows.
Cohorts of three or four 250-450 gram male Sprague-Dawley rats or approximately 10 kg Beagle dogs (female or male) are used. […] Dogs are administered i.v. by cannulated cephalic vein and blood collections are by jugular vein. Animals are first dosed at 0.25 mg/kg i.v. and blood samples (0.2 mL) are then collected using EDTA as an anticoagulant at 0.0830, 0.25, 0.50, 1, 2, 4, 8, 12, 24, 48, 72, 96, and 120 hours. Next after at least two days and after 18-24 hours fasting, the animals are dosed at 1.0 mg/kg by oral gavage. During the course of a study the total of blood (ml) collected is not to exceed 1% of total body weight in grams. Should larger blood volumes be required, the sampled blood volume is replace with heparinized whole blood from a donor animal. When using a cross-over study design, rats receive a volume of heparinized whole blood following the final sample of each study day approximately equal to that removed during study.
Compound plasma concentrations are measured by LC/MS/MS assays. Data are then analyzed using standard non-compartmental pharmacokinetic analysis. […]

The next data set has as its target T1, CYP2D6 (Homo sapiens, UniProt P10635).
T1 construct: pooled, mixed gender, human liver microsomes; from tissue; host or cells: pooled, mixed gender human liver microsomes
Briefly: Human CYP fingerprinting, quinidine inhibitor. In kind it is in vitro ADME. Particulars: 4 μM, human liver microsomes, 30 min, quinidine 10 μM. The method, then:
(§1) CYP fingerprinting is well established technique and is used as an indication of potential risk of drug-drug interactions in the pharmaceutical sciences. Compounds of the present invention may be assayed by well known methods, essentially as follows: Compounds are incubated at 37° C. at a final concentration of 4 μM with pooled, mixed gender, human liver microsomes and 1 mM NADPH ([…]) (final conc.) for 0 and 30 min. without any CYP inhibitor and with each CYP inhibitor in separate incubations for 30 min. Each inhibitor is specific for an individual cytochrome P450. The specific inhibitors used for CYPs 2C9, 2D6 and 3A were sulfaphenazole, quinidine and ketoconazole, respectively. Ketoconazole (CYP3A) is made up at 25 mM in DMSO and then diluted in buffer to a final concetration of 10 μM. Quinidine (CYP2D6) is made up at 5 mM in 50/50 acetonitrile/water and then diluted in buffer to a final concetration of 10 μM. Sulfaphenazole (CYP2C9) is made up at 100 mM in DMSO and then diluted in buffer to a final concetration of 5 μM. Samples are analyzed by LC-MS in positive or negative electrospray mode using a Waters Acquity Ultra Performance LC coupled to a MicroMass Q-T of-2 mass spectrometer.
(§2) Data are analyzed using MetaboLynx™ version 4.1. With inhibitor present, a reduction in metabolite peak area of less than 30% (relative to the uninhibited control incubation) receives a designation of low risk of Drug Drug Interaction (DDI), a reduction in peak area between 30% and 70% receives a moderate risk of DDI and a reduction of more than 70% receives a high risk of DDI.

The test system of the next data set is CYP3A. Briefly: Human CYP fingerprinting, ketoconazole inhibitor. It counts as in vitro ADME. Particulars: 4 μM, human liver microsomes, 30 min, ketoconazole 10 μM. Here is the method: as §1, §2

T1 sequence (P10635 whole entry): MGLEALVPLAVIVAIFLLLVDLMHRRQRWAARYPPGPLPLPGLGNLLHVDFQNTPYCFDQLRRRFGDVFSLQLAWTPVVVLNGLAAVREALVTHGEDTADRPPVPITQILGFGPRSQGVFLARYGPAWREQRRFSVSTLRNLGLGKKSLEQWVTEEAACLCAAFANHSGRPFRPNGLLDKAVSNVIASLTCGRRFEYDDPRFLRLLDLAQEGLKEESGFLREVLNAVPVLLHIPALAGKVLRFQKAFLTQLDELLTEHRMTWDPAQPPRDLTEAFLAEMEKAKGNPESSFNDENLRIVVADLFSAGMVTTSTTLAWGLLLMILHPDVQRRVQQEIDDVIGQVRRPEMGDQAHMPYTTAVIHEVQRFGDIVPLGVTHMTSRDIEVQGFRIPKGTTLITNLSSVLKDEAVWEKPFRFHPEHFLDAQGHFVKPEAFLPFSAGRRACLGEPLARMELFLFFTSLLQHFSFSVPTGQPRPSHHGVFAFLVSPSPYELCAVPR

The compound `CC(C)(N[C@@H]1C[C@H](c2cccc(OC(F)(F)F)c2)N(c2ccc(C(F)(F)F)cc2)C1=O)c1ccnc(C(F)(F)F)n1.Cc1ccc(S(=O)(=O)O)cc1` [Example 5, (3R,5R)-3-[1-Methyl-1-(2-trifluoromethyl-pyrimidin-4-yl)-ethylamino]-5-(3-trifluoromethoxy-phenyl)-1-(4-trifluoromethyl-phenyl)-pyrrolidin-2-one tosylate] registered a bioavailability in “Rat oral bioavailability” of 51%. Also, the “Risk of Drug Drug Interaction (DDI) CYP2D6” value at CYP2D6 is recorded as “low (a reduction in metabolite peak area of less than 30% (relative to the uninhibited control incubation) receives a designation of low risk of Drug Drug Interaction (DDI))”. The “Risk of Drug Drug Interaction (DDI) CYP3A” value in the data set on CYP3A is “low (a reduction in metabolite peak area of less than 30% (relative to the uninhibited control incubation) receives a designation of low risk of Drug Drug Interaction (DDI))”.

For the origin of these results see patent publication US8420654B2 (Eli Lilly and Company, priority 2008, dated 2013).
